Results as given in patent US8501794B2, “Compounds as cannabinoid receptor ligands” (priority 2007, dated 2013).

How the values were obtained:
[1] = biological target: T1, rat CB2 (Rattus norvegicus, UniProt Q9QZN9); experiment: rat CB2 cyclase functional assay (HitHunter cAMP, HEK cells); type: cell-based; design: expressed in transfected cells; host or cells: HEK; conditions: forskolin 18 μM
T1 sequence (Q9QZN9 1-360): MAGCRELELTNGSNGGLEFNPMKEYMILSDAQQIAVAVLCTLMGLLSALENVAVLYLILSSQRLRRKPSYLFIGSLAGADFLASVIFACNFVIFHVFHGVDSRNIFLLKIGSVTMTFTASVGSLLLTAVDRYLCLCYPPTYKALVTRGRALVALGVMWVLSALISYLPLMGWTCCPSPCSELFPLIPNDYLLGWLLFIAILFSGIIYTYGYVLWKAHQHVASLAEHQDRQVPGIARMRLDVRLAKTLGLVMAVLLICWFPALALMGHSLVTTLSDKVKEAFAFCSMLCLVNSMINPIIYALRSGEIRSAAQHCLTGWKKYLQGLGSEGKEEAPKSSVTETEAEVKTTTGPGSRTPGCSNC

[2] = biological target: T2, human CB2 receptors (Homo sapiens, UniProt P34972); experiment: human CB2 radioligand binding assay ([3H]CP-55,940 competition)
T2 construct: expressed in transfected cells; host or cells: HEK293

[3] = biological target: T1, rat CB2; experiment: rat CB2 radioligand binding assay ([3H]CP-55,940 competition); design: expressed in transfected cells; host or cells: HEK293

T2 sequence (P34972 whole entry): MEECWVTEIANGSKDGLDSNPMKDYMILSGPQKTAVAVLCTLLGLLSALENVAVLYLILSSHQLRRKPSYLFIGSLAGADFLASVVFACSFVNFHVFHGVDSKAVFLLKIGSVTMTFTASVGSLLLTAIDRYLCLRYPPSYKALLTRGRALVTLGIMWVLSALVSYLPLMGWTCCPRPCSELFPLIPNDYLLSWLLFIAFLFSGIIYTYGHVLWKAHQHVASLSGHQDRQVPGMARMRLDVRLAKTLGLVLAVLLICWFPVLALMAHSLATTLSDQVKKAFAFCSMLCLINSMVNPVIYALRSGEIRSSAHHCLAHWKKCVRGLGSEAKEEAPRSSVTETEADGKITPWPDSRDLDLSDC

Compound	EC50 [1] [nM]	Ki [2] [nM]	Ki [3] [nM]
COc1ccc(Cl)cc1C(=O)/N=c1\sn(C(C)(C)C)cc1CCCCC#N [Example 138, N-[(5Z)-2-tert-butyl-4-(4-cyanobutyl)isothiazol-5(2H)-ylidene]-5-chloro-2-methoxybenzamide]	12.8	5.9	0.9
CCCCc1cn(C(C)(C)C)s/c1=N\C(=O)c1cc(OC)ccc1OC [Example 41, N-[(5Z)-4-butyl-2-tert-butylisothiazol-5(2H)-ylidene]-2,5-dimethoxybenzamide]	0.21	45	6.3
CCCCc1cn(C(C)(C)C)s/c1=N\C(=O)[C@]1(C)CC[C@H](NC(N)=O)C1(C)C [Example 245, (1R,3S)-3-[(aminocarbonyl)amino]-N-[(5Z)-4-butyl-2-tert-butylisothiazol-5(2H)-ylidene]-1,2,2-trimethylcyclopentanecarboxamide]	9.6	32	35
COc1ccc(Cl)cc1C(=O)/N=c1\sn(C(C)(C)C)cc1CCCC(C)(F)F [Example 86, N-[(5Z)-2-tert-butyl-4-(4,4-difluoropentyl)isothiazol-5(2H)-ylidene]-5-chloro-2-methoxybenzamide]	0.12	4.4	0.64
CCCCc1cn(C(C)(C)C)s/c1=N\C(=O)c1cc(C=O)ccc1OC [Example 56, N-[(5Z)-4-butyl-2-tert-butylisothiazol-5(2H)-ylidene]-5-formyl-2-methoxybenzamide]	0.076	11	1.2
COc1ccc(Cl)cc1C(=O)/N=c1\sn(C(C)(C)C)cc1COCC(F)(F)F [Example 85, N-[(5Z)-2-tert-butyl-4-[(2,2,2-trifluoroethoxy)methyl]isothiazol-5(2H)-ylidene]-5-chloro-2-methoxybenzamide]	0.42	17	3.5
CCCCc1cn(C(C)(C)C)s/c1=N\C(=O)c1cc(C#N)ccc1OC [Example 26, N-[(5Z)-4-butyl-2-tert-butylisothiazol-5(2H)-ylidene]-5-cyano-2-methoxybenzamide]	0.23	14	1
COc1ccc(Cl)cc1C(=O)/N=c1\sn(C(C)(C)C)cc1CC1CC(C)=NO1 (stereo not drawn) [Example 7]	2.7	370	8.8
CCCCc1cn(C(C)(C)C)s/c1=N\C(=O)[C@]1(C)CC[C@H](C2=NCCO2)C1(C)C [Example 217, (1R,3S)—N-[(5Z)-4-butyl-2-tert-butylisothiazol-5(2H)-ylidene]-3-(4,5-dihydro-1,3-oxazol-2-yl)-1,2,2-trimethylcyclopentanecarboxamide]	0.16	0.7	0.73
COc1ccc(Cl)cc1C(=O)/N=c1\sn(C(C)(C)C)cc1CC1CCC1 [Example 38, N-[(5Z)-2-tert-butyl-4-(cyclobutylmethyl)isothiazol-5(2H)-ylidene]-5-chloro-2-methoxybenzamide]	1.7	2.5	0.61
COc1ccc(C(F)(F)F)cc1C(=O)/N=c1\sn(C(C)(C)C)cc1Cc1ccco1 [Example 71, N-[(5Z)-2-tert-butyl-4-(2-furylmethyl)isothiazol-5(2H)-ylidene]-2-methoxy-5-(trifluoromethyl)benzamide]	0.36	28	1.9
CCCCc1cn(C(C)(C)C)s/c1=N\C(=O)[C@@H]1CC[C@](C)(C(=O)NCCO)C1(C)C [Example 212, (1S,3R)—N^3-[(5Z)-4-butyl-2-tert-butylisothiazol-5(2H)-ylidene]-N^1-(2-hydroxyethyl)-1,2,2-trimethylcyclopentane-1,3-dicarboxamide]	6.2	180	257
CCCCc1cn(C(C)(C)C)s/c1=N\C(=O)C1(C)CCC(C(=O)N(C)C)C1(C)C (stereo not drawn) [Example 99, N^1-[(5Z)-4-butyl-2-tert-butylisothiazol-5(2H)-ylidene]-N^3,N^3,1,2,2-pentamethylcyclopentane-1,3-dicarboxamide]	4.8	56	42
COc1ccc(Cl)cc1C(=NC#N)/N=c1\sn(C(C)(C)C)cc1CCCC#N [Example 128, N-[(5Z)-2-tert-butyl-4-(3-cyanopropyl)isothiazol-5(2H)-ylidene]-5-chloro-N′-cyano-2-methoxybenzenecarboximidamide]	0.26	15	5.8
CC(C)Cc1cn(C(C)(C)C)s/c1=N\C(=O)c1cc(Cl)ccc1OCCF [Example 144, N-[(5Z)-2-tert-butyl-4-isobutylisothiazol-5(2H)-ylidene]-5-chloro-2-(2-fluoroethoxy)benzamide]	0.1	8.8	1.2
CCCCc1cn(C(C)(C)C)s/c1=N\C(=NC#N)c1cc(C(F)(F)F)ccc1OCC [Example 126, N-[(5Z)-4-butyl-2-tert-butylisothiazol-5(2H)-ylidene]-N′-cyano-2-ethoxy-5-(trifluoromethyl)benzenecarboximidamide]	0.076	0.6	1.2
CC(C)(C)n1cc(CCCC#N)/c(=N/C(=O)c2cc(Cl)ccc2OCC(F)(F)F)s1 [Example 133, N-[(5Z)-2-tert-butyl-4-(3-cyanopropyl)isothiazol-5(2H)-ylidene]-5-chloro-2-(2,2,2-trifluoroethoxy)benzamide]	1.4	15	1.1
CCCCc1cn(C(C)(C)C)s/c1=N\C(=O)C12CC3CC(CC(C3)C1)C2 [Example 123, N-[(5Z)-4-butyl-2-tert-butylisothiazol-5(2H)-ylidene]adamantane-1-carboxamide]	0.13	0.31	0.17
CCCCc1cn(C(C)(C)CF)s/c1=N\C(=O)c1cc(C(F)(F)F)ccc1OC [Example 152, N-[(5Z)-4-butyl-2-(2-fluoro-1,1-dimethylethyl)isothiazol-5(2H)-ylidene]-2-methoxy-5-(trifluoromethyl)benzamide]	0.071	5.1	0.79
COc1ccc(Cl)cc1C(=O)/N=c1\sn(C(C)(C)C)cc1Cc1ccco1 [Example 50, N-[(5Z)-2-tert-butyl-4-(2-furylmethyl)isothiazol-5(2H)-ylidene]-5-chloro-2-methoxybenzamide]	0.13	19	2.5
COc1ccc(Cl)cc1C(=O)/N=c1\sn(C(C)(C)C)cc1Cc1cscn1 [Example 52, N-[(5Z)-2-tert-butyl-4-(1,3-thiazol-4-ylmethyl)isothiazol-5(2H)-ylidene]-5-chloro-2-methoxybenzamide]	0.15	43	4.8
CCCCc1cn(C(C)(C)C)s/c1=N\C(=O)[C@]1(C)CC[C@H](C(=O)OCC)C1(C)C [Example 175, Ethyl (1S,3R)-3-({[(5Z)-4-butyl-2-tert-butylisothiazol-5(2H)-ylidene]amino}carbonyl)-2,2,3-trimethylcyclopentanecarboxylate]	0.54	3.8	1.5
CCCCc1cn(C(C)(C)C)s/c1=N\C(=O)c1cc(F)ccc1OC [Example 42, N-[(5Z)-4-butyl-2-tert-butylisothiazol-5(2H)-ylidene]-5-fluoro-2-methoxybenzamide]	0.31	24	2.3
CCCCc1cn(C(C)(C)C)s/c1=N\C(=NC#N)c1cc(C(F)(F)F)ccc1OC[C@@H]1CCCN1C [Example 193]	2.7	37	97
COc1ccc(C(F)(F)F)cc1C(=O)/N=c1\sn(C(C)(C)C)cc1CCCC(C)=O [Example 76, N-[(5Z)-2-tert-butyl-4-(4-oxopentyl)isothiazol-5(2H)-ylidene]-2-methoxy-5-(trifluoromethyl)benzamide]	0.13	24	2.2
COc1ccc(Cl)cc1C(=O)/N=c1\sn(C(C)(C)C)cc1CCCCF [Example 148, N-[(5Z)-2-tert-butyl-4-(4-fluorobutyl)isothiazol-5(2H)-ylidene]-5-chloro-2-methoxybenzamide]	0.11	7.6	0.24
CCCCc1cn(C(C)(C)C)s/c1=N\C(=O)C1CCC(C)(C(=O)O)C1(C)C (stereo not drawn) [Example 105, 3-({[(5Z)-4-butyl-2-tert-butylisothiazol-5(2H)-ylidene]amino}carbonyl)-1,2,2-trimethylcyclopentanecarboxylic acid]	0.11	19	17
COc1ccc(Cl)cc1C(=O)/N=c1\sn(C(C)(C)C)cc1CCCC(F)(F)F [Example 142, N-[(5Z)-2-tert-butyl-4-(4,4,4-trifluorobutyl)isothiazol-5(2H)-ylidene]-5-chloro-2-methoxybenzamide]	0.062	2.2	0.43
COc1ccc(C(F)(F)F)cc1C(=O)/N=c1\sn(C(C)(C)C)cc1CCCC#N [Example 134, N-[(5Z)-2-tert-butyl-4-(3-cyanopropyl)isothiazol-5(2H)-ylidene]-2-methoxy-5-(trifluoromethyl)benzamide]	1.6	18	1.1
